# Key:
# Design in all cases: scale not given here
# ABUTH Velvetleaf [1] = experiment: Postemergence herbicidal evaluation, ABUTH; type: in vivo, Abutilon theophrasti, Medic.; conditions: postemergence spray, rated about two-three weeks after treatment
# Protocol: (§1) In this evaluation, seedling plants are grown in jiffy flats for about two weeks. The test compounds are dispersed in 80/20 acetone/water mixtures containing 1.0% SUN-IT® II, a methylated seed oil, in sufficient quantities to provide the equivalent of about 0.006 kg to 0.400 kg per hectare of active compound when applied to the plants through a spray nozzle operating at 40 psi for a predetermined time. After spraying, the plants are placed on greenhouse benches and are cared for in accordance with conventional greenhouse procedures. Approximately two - three weeks after treatment, the seedling plants are examined and rated according to the rating system set forth below. Where more than one test is involved for a given compound, the data are averaged.
# [2] = test system: IPOHE Morningglory, Ivyleaf; experiment: Postemergence herbicidal evaluation, IPOHE; type: in vivo, Ipomoea hederacea, (L.) Jacq.; conditions: postemergence spray, rated about two-three weeks after treatment
# Protocol: as §1
# ORYSAT Rice, Tebonnet [3] = experiment: Preemergence herbicidal evaluation, ORYSAT; type: in vivo, Oryza sativa, (L.); conditions: preemergence
# Source text: (§2) The preemergence herbicidal activity of the test compounds of the present invention is exemplified by the following tests in which the seeds of a variety of monocotyledonous and dicotyledonous plants are separately mixed with potting soil and planted on top of approximately one inch of soil in separate pint cups. […] The treated cups are then placed on greenhouse benches, watered and cared for in accordance with conventional greenhouse procedures. From four to five weeks after treatment, the tests are terminated and each cup is examined and rated according to the rating system provided in Example 46.
# ZEAMX Corn, Field [4] = experiment: Postemergence herbicidal evaluation, ZEAMX; type: in vivo, Zea mays, L. (Sammel-Bezeichnung); conditions: postemergence spray, rated about two-three weeks after treatment
# Protocol: as §1
# AMBEL Ragweed, Common [5] = experiment: Preemergence herbicidal evaluation, AMBEL; type: in vivo, Ambrosia artemisifolia, L.; conditions: preemergence
# Source text: as §2
# ECHOG Barnyardgrass [6] = experiment: Preemergence herbicidal evaluation, ECHOG; type: in vivo, Echinochloa crus-galli, (L.) Beau; conditions: preemergence
# Source text: as §2
# GLXMAW Soybean, Williams [7] = experiment: Preemergence herbicidal evaluation, GLXMAW; type: in vivo, Glycine max, (L.) Merr. cv Williams; conditions: preemergence
# Source text: as §2
# [8] = test system: CHEAL Lambsquarters, Common; experiment: Preemergence herbicidal evaluation, CHEAL; type: in vivo, Chenopodium album, L.; conditions: preemergence
# Source text: as §2
# GALAP Galium [9] = experiment: Preemergence herbicidal evaluation, GALAP; type: in vivo, Galium aparine; conditions: preemergence
# Source text: as §2
# CASOB Sicklepod [10] = experiment: Preemergence herbicidal evaluation, CASOB; type: in vivo, Cassia obtusifolia, L.; conditions: preemergence
# Source text: as §2
# GALAP Galium [11] = experiment: Postemergence herbicidal evaluation, GALAP; type: in vivo, Galium aparine; conditions: postemergence spray, rated about two-three weeks after treatment
# Protocol: as §1
# [12] = test system: CHEAL Lambsquarters, Common; experiment: Postemergence herbicidal evaluation, CHEAL; type: in vivo, Chenopodium album, L.; conditions: postemergence spray, rated about two-three weeks after treatment
# Protocol: as §1
# [13] = test system: TRZAWR Wheat, Winter, cv Riband; experiment: Postemergence herbicidal evaluation, TRZAWR; type: in vivo, Triticum aestivum; conditions: postemergence spray, rated about two-three weeks after treatment
# Protocol: as §1
# AMBEL Ragweed, Common [14] = experiment: Postemergence herbicidal evaluation, AMBEL; type: in vivo, Ambrosia artemisifolia, L.; conditions: postemergence spray, rated about two-three weeks after treatment
# Protocol: as §1
# GLXMAW Soybean, Williams [15] = experiment: Postemergence herbicidal evaluation, GLXMAW; type: in vivo, Glycine max, (L.) Merr. cv Williams; conditions: postemergence spray, rated about two-three weeks after treatment
# Protocol: as §1
# ECHOG Barnyardgrass [16] = experiment: Postemergence herbicidal evaluation, ECHOG; type: in vivo, Echinochloa crus-galli, (L.) Beau; conditions: postemergence spray, rated about two-three weeks after treatment
# Protocol: as §1
# [17] = test system: IPOHE Morningglory, Ivyleaf; experiment: Preemergence herbicidal evaluation, IPOHE; type: in vivo, Ipomoea hederacea, (L.) Jacq.; conditions: preemergence
# Source text: as §2
# ABUTH Velvetleaf [18] = experiment: Preemergence herbicidal evaluation, ABUTH; type: in vivo, Abutilon theophrasti, Medic.; conditions: preemergence
# Source text: as §2
# ZEAMX Corn, Field [19] = experiment: Preemergence herbicidal evaluation, ZEAMX; type: in vivo, Zea mays, L. (Sammel-Bezeichnung); conditions: preemergence
# Source text: as §2
# SETVI Foxtail, Green [20] = experiment: Preemergence herbicidal evaluation, SETVI; type: in vivo, Setaria viridis, (L.) Beau; conditions: preemergence
# Source text: as §2
# [21] = test system: TRZAWR Wheat, Winter, cv Riband; experiment: Preemergence herbicidal evaluation, TRZAWR; type: in vivo, Triticum aestivum; conditions: preemergence
# Source text: as §2
# ORYSAT Rice, Tebonnet [22] = experiment: Postemergence herbicidal evaluation, ORYSAT; type: in vivo, Oryza sativa, (L.); conditions: postemergence spray, rated about two-three weeks after treatment
# Protocol: as §1
# CASOB Sicklepod [23] = experiment: Postemergence herbicidal evaluation, CASOB; type: in vivo, Cassia obtusifolia, L.; conditions: postemergence spray, rated about two-three weeks after treatment
# Protocol: as §1
# SETVI Foxtail, Green [24] = experiment: Postemergence herbicidal evaluation, SETVI; type: in vivo, Setaria viridis, (L.) Beau; conditions: postemergence spray, rated about two-three weeks after treatment
# Protocol: as §1
structure (smiles),measurement,setting,value
C#CCOC(=O)COc1ccc(C)c(-n2nnc3cc(F)c(-n4c(=O)cc(C(F)(F)F)n(C)c4=O)cc32)c1 [Example 36],Postemergence herbicidal rating ABUTH,ABUTH Velvetleaf [1]; 0.008 kg/ha,2.0
same,Postemergence herbicidal rating ABUTH,ABUTH Velvetleaf [1]; 0.016 kg/ha,7.0
same,Postemergence herbicidal rating ABUTH,ABUTH Velvetleaf [1]; 0.032 kg/ha,9.0
same,Postemergence herbicidal rating ABUTH,ABUTH Velvetleaf [1]; 0.062 kg/ha,9.0
same,Postemergence herbicidal rating IPOHE,[2]; 0.008 kg/ha,5.0
same,Postemergence herbicidal rating IPOHE,[2]; 0.016 kg/ha,8.0
same,Postemergence herbicidal rating IPOHE,[2]; 0.032 kg/ha,9.0
same,Postemergence herbicidal rating IPOHE,[2]; 0.062 kg/ha,9.0
same,ORYSAT herbicidal rating,"ORYSAT Rice, Tebonnet [3]; rate 0.016 kg/ha",0.0
same,ORYSAT herbicidal rating,"ORYSAT Rice, Tebonnet [3]; rate 0.032 kg/ha",0.0
same,ORYSAT herbicidal rating,"ORYSAT Rice, Tebonnet [3]; rate 0.062 kg/ha",1.0
same,ORYSAT herbicidal rating,"ORYSAT Rice, Tebonnet [3]; rate 0.125 kg/ha",1.5
same,Postemergence herbicidal rating ZEAMX,"ZEAMX Corn, Field [4]; 0.008 kg/ha",7.5
same,Postemergence herbicidal rating ZEAMX,"ZEAMX Corn, Field [4]; 0.016 kg/ha",7.5
same,Postemergence herbicidal rating ZEAMX,"ZEAMX Corn, Field [4]; 0.032 kg/ha",8.0
same,Postemergence herbicidal rating ZEAMX,"ZEAMX Corn, Field [4]; 0.062 kg/ha",8.5
same,AMBEL herbicidal rating,"AMBEL Ragweed, Common [5]; rate 0.016 kg/ha",0.0
same,AMBEL herbicidal rating,"AMBEL Ragweed, Common [5]; rate 0.032 kg/ha",2.0
same,AMBEL herbicidal rating,"AMBEL Ragweed, Common [5]; rate 0.062 kg/ha",2.0
same,AMBEL herbicidal rating,"AMBEL Ragweed, Common [5]; rate 0.125 kg/ha",5.0
same,ECHCG herbicidal rating,ECHOG Barnyardgrass [6]; rate 0.016 kg/ha,0.0
same,ECHCG herbicidal rating,ECHOG Barnyardgrass [6]; rate 0.032 kg/ha,0.0
same,ECHCG herbicidal rating,ECHOG Barnyardgrass [6]; rate 0.062 kg/ha,0.0
same,ECHCG herbicidal rating,ECHOG Barnyardgrass [6]; rate 0.125 kg/ha,0.0
same,GLXMAW herbicidal rating,"GLXMAW Soybean, Williams [7]; rate 0.016 kg/ha",0.0
same,GLXMAW herbicidal rating,"GLXMAW Soybean, Williams [7]; rate 0.032 kg/ha",0.0
same,GLXMAW herbicidal rating,"GLXMAW Soybean, Williams [7]; rate 0.062 kg/ha",0.0
same,GLXMAW herbicidal rating,"GLXMAW Soybean, Williams [7]; rate 0.125 kg/ha",0.0
same,CHEAL herbicidal rating,[8]; rate 0.016 kg/ha,0.0
same,CHEAL herbicidal rating,[8]; rate 0.032 kg/ha,6.5
same,CHEAL herbicidal rating,[8]; rate 0.062 kg/ha,9.0
same,CHEAL herbicidal rating,[8]; rate 0.125 kg/ha,9.0
same,GALAP herbicidal rating,GALAP Galium [9]; rate 0.016 kg/ha,0.0
same,GALAP herbicidal rating,GALAP Galium [9]; rate 0.032 kg/ha,0.0
same,GALAP herbicidal rating,GALAP Galium [9]; rate 0.062 kg/ha,0.0
same,GALAP herbicidal rating,GALAP Galium [9]; rate 0.125 kg/ha,0.0
same,CASOB herbicidal rating,CASOB Sicklepod [10]; rate 0.016 kg/ha,0.0
same,CASOB herbicidal rating,CASOB Sicklepod [10]; rate 0.032 kg/ha,0.0
same,CASOB herbicidal rating,CASOB Sicklepod [10]; rate 0.062 kg/ha,0.0
same,CASOB herbicidal rating,CASOB Sicklepod [10]; rate 0.125 kg/ha,0.0
same,Postemergence herbicidal rating GALAP,GALAP Galium [11]; 0.008 kg/ha,0.0
same,Postemergence herbicidal rating GALAP,GALAP Galium [11]; 0.016 kg/ha,0.0
same,Postemergence herbicidal rating GALAP,GALAP Galium [11]; 0.032 kg/ha,2.0
same,Postemergence herbicidal rating GALAP,GALAP Galium [11]; 0.062 kg/ha,3.0
same,Postemergence herbicidal rating CHEAL,[12]; 0.008 kg/ha,0.0
same,Postemergence herbicidal rating CHEAL,[12]; 0.016 kg/ha,0.0
same,Postemergence herbicidal rating CHEAL,[12]; 0.032 kg/ha,2.0
same,Postemergence herbicidal rating CHEAL,[12]; 0.062 kg/ha,4.0
same,Postemergence herbicidal rating TRZAWR,[13]; 0.008 kg/ha,4.5
same,Postemergence herbicidal rating TRZAWR,[13]; 0.016 kg/ha,5.0
same,Postemergence herbicidal rating TRZAWR,[13]; 0.032 kg/ha,6.0
same,Postemergence herbicidal rating TRZAWR,[13]; 0.062 kg/ha,7.0
same,Postemergence herbicidal rating AMBEL,"AMBEL Ragweed, Common [14]; 0.008 kg/ha",2.0
same,Postemergence herbicidal rating AMBEL,"AMBEL Ragweed, Common [14]; 0.016 kg/ha",4.0
same,Postemergence herbicidal rating AMBEL,"AMBEL Ragweed, Common [14]; 0.032 kg/ha",5.0
same,Postemergence herbicidal rating AMBEL,"AMBEL Ragweed, Common [14]; 0.062 kg/ha",5.0
same,Postemergence herbicidal rating GLXMAW,"GLXMAW Soybean, Williams [15]; 0.008 kg/ha",3.5
same,Postemergence herbicidal rating GLXMAW,"GLXMAW Soybean, Williams [15]; 0.016 kg/ha",4.0
same,Postemergence herbicidal rating GLXMAW,"GLXMAW Soybean, Williams [15]; 0.032 kg/ha",4.0
same,Postemergence herbicidal rating GLXMAW,"GLXMAW Soybean, Williams [15]; 0.062 kg/ha",4.5
same,Postemergence herbicidal rating ECHCG,ECHOG Barnyardgrass [16]; 0.008 kg/ha,0.0
same,Postemergence herbicidal rating ECHCG,ECHOG Barnyardgrass [16]; 0.016 kg/ha,0.0
same,Postemergence herbicidal rating ECHCG,ECHOG Barnyardgrass [16]; 0.032 kg/ha,0.0
same,Postemergence herbicidal rating ECHCG,ECHOG Barnyardgrass [16]; 0.062 kg/ha,3.0
same,IPOHE herbicidal rating,[17]; rate 0.016 kg/ha,0.0
same,IPOHE herbicidal rating,[17]; rate 0.032 kg/ha,0.0
same,IPOHE herbicidal rating,[17]; rate 0.062 kg/ha,0.0
same,IPOHE herbicidal rating,[17]; rate 0.125 kg/ha,4.0
same,ABUTH herbicidal rating,ABUTH Velvetleaf [18]; rate 0.016 kg/ha,0.0
same,ABUTH herbicidal rating,ABUTH Velvetleaf [18]; rate 0.032 kg/ha,1.5
same,ABUTH herbicidal rating,ABUTH Velvetleaf [18]; rate 0.062 kg/ha,3.0
same,ABUTH herbicidal rating,ABUTH Velvetleaf [18]; rate 0.125 kg/ha,8.0
same,ZEAMX herbicidal rating,"ZEAMX Corn, Field [19]; rate 0.016 kg/ha",0.0
same,ZEAMX herbicidal rating,"ZEAMX Corn, Field [19]; rate 0.032 kg/ha",0.0
same,ZEAMX herbicidal rating,"ZEAMX Corn, Field [19]; rate 0.062 kg/ha",0.0
same,ZEAMX herbicidal rating,"ZEAMX Corn, Field [19]; rate 0.125 kg/ha",0.0
same,SETVI herbicidal rating,"SETVI Foxtail, Green [20]; rate 0.016 kg/ha",0.0
same,SETVI herbicidal rating,"SETVI Foxtail, Green [20]; rate 0.032 kg/ha",0.0
same,SETVI herbicidal rating,"SETVI Foxtail, Green [20]; rate 0.062 kg/ha",0.0
same,SETVI herbicidal rating,"SETVI Foxtail, Green [20]; rate 0.125 kg/ha",3.0
same,TRZAWR herbicidal rating,[21]; rate 0.016 kg/ha,0.0
same,TRZAWR herbicidal rating,[21]; rate 0.032 kg/ha,0.0
same,TRZAWR herbicidal rating,[21]; rate 0.062 kg/ha,0.0
same,TRZAWR herbicidal rating,[21]; rate 0.125 kg/ha,0.0
same,Postemergence herbicidal rating ORYSAT,"ORYSAT Rice, Tebonnet [22]; 0.008 kg/ha",1.5
same,Postemergence herbicidal rating ORYSAT,"ORYSAT Rice, Tebonnet [22]; 0.016 kg/ha",1.0
same,Postemergence herbicidal rating ORYSAT,"ORYSAT Rice, Tebonnet [22]; 0.032 kg/ha",2.5
same,Postemergence herbicidal rating ORYSAT,"ORYSAT Rice, Tebonnet [22]; 0.062 kg/ha",4.0
same,Postemergence herbicidal rating CASOB,CASOB Sicklepod [23]; 0.008 kg/ha,0.0
same,Postemergence herbicidal rating CASOB,CASOB Sicklepod [23]; 0.016 kg/ha,0.0
same,Postemergence herbicidal rating CASOB,CASOB Sicklepod [23]; 0.032 kg/ha,0.0
same,Postemergence herbicidal rating CASOB,CASOB Sicklepod [23]; 0.062 kg/ha,0.0
same,Postemergence herbicidal rating SETVI,"SETVI Foxtail, Green [24]; 0.008 kg/ha",4.0
same,Postemergence herbicidal rating SETVI,"SETVI Foxtail, Green [24]; 0.016 kg/ha",4.0
same,Postemergence herbicidal rating SETVI,"SETVI Foxtail, Green [24]; 0.032 kg/ha",7.0
same,Postemergence herbicidal rating SETVI,"SETVI Foxtail, Green [24]; 0.062 kg/ha",9.0

# Source: US20020111274A1, “1-alkyl-3-[1-(substituted phenyl) benzotriazol-6-yl] uracils” (BASF Aktiengesellschaft, priority 2000, published 2002)
